In patent US10947196B2, “Beta adrenergic agonist and methods of using the same” (CURASEN THERAPEUTICS, INC., priority 2019, dated 2021):
Like-named read-outs stand apart in the source and are kept apart here.

Columns and labels:
[1] = Microsomal stability (human); format: in vitro ADME; details: liver microsomes 0.5 mg/mL; method gives CLint in μL/min/mg protein
Experimental: The master solution was prepared as follows.
With NADPH: 10 μL of 20 mg/mL liver microsomes and 40 μL of 10 mM NADPH were added to the incubations. The final concentrations of microsomes and NADPH were 0.5 mg/mL and 1 mM, respectively.
Without NADPH: 10 μL of 20 mg/mL liver microsomes and 40 μL of ultra-pure H2O were added to the incubations. The final concentration of microsomes was 0.5 mg/mL.
The reaction was started with the addition of 4 μL of 3, 10, 30 and 100 μM test compound solution or control compound solution at the final concentration of 0.03, 0.1, 0.3 and 1 μM and carried out at 37° C.
Aliquots of 50 μL were taken from the reaction solution at 0, 15, 30, 45 and 60 min. The reaction was stopped by the addition of 4 volumes of cold acetonitrile with IS (100 nM alprazolam, 200 nM labetalol, 200 nM caffeine and 2 μM ketoprofen). Samples were centrifuged at 3, 220 g for 40 minutes. Aliquot of 100 μL of the supernatant was mixed with 100 μL of ultra-pure H2O and then used for LC-MS/MS analysis.
Peak areas were determined from extracted ion chromatograms. The slope value, k, was determined by linear regression of the natural logarithm of the remaining percentage of the parent drug vs. incubation time curve.
The in vitro half-life (in vitro t1/2) was determined from the slope value: in vitro t1/2=−(0.693/k) […]

[2] = Hepatocyte stability (monkey); format: in vitro ADME; details: 0.5×10^6 viable cells/mL
Experimental: 10 mM and 100 μM stock solutions of test compound(s) and a positive control were prepared in appropriate solvent (DMSO). In separate conical tubes, the 10 mM test compound and the positive control were diluted to 100 μM by combining 198 μL of 50% acetonitrile/50% water and 2 μL of 10 mM stock. The 100 μM test compound and the positive control were diluted to 30 μM by combining 140 μL of 50% acetonitrile/50% water and 60 μL of 100 μM stock solution. The 100 μM test compound and the positive control were diluted to 10 μM by combining 180 μL of 50% acetonitrile/50% water and 20 μL of 100 μM stock solution. The 100 μM test compound and the positive control were diluted to 3 μM by combining 194 μL of 50% acetonitrile/50% water and 6 μL of 100 μM stock solution.
Incubation medium (William's E Medium supplemented with GlutaMAX) and hepatocyte thawing medium was placed in a 37° C. water bath, and allowed to warm for at least 15 minutes prior to use. […]
Using AOPI staining solution, cells were counted and the viable cell density was determined. […]
All calculations were carried out using Microsoft Excel. Peak areas were determined from extracted ion chromatograms. […]
The in vitro half-life (in vitro t1/2) was determined from the slope value: in vitro t1/2=0.693/k

[3] = biological target: B3-AR (Homo sapiens (Human), UniProt P13945); assay: cAMP potency assay, B3-AR expressing CHO-K1 cells; format: cell-based
[4] = read-out: Average pEC50 [Receptor subtype: B3-AR, Cell type: CHO-K1] (converted)

Chain of B3-AR (P13945 whole entry, species assumed): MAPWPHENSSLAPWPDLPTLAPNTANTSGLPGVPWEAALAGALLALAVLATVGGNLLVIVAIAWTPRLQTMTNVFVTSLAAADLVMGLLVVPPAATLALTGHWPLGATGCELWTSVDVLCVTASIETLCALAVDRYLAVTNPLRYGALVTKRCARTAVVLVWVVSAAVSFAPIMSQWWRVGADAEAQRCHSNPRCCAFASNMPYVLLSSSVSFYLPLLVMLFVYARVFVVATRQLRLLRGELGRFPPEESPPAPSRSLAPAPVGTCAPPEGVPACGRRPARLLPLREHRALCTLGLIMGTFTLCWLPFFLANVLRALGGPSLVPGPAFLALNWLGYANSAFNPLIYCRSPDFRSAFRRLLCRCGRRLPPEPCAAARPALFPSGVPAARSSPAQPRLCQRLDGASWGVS

Row | Compound | Microsomal stability, Human [1] | Hepatocyte stability, Monkey [2] | EC50 ([3]; read-out: Average EC50 [Receptor subtype: B3-AR, Cell type: CHO-K1]) | EC50 [3, 4]
1 | CC(C)(C)NC[C@H](O)c1cccc(C#N)n1 [Compound 03-5, (S)-6-(2-(tert-butylamino)-1-hydroxyethyl)picolinonitrile] | 2.96 µL/min/mg protein | 1.88 μL/min/10^6 cells | 100 to 1000 nM | > 1000 nM
2 | CC(C)(C)NC[C@H](O)c1cccc(C(F)(F)F)n1 [Compound 03-3] | 3.49 µL/min/mg protein | – | – | –
3 | Cc1ncccc1[C@@H](O)CNC(C)(C)C [Compound 03-115] | – | 1.26 μL/min/10^6 cells | – | > 1000 nM
